Laboratory results reported in patent US20110229534A1, “Non-Irritating Oral Care Formulations” (The Trustees of Columbia University In The City Of New York, priority 2006, published 2011).
Read-outs that look alike come from different tables or passages of the source.

Assays:
[1] = oral administration; cited from earlier work
[2] = oral rinse containing ketorolac; small number of patients; cited from earlier work
[3] = system: GCF-IL-1 beta; settings: used as an oral rinse; cited from earlier work
[4] = system: Streptococcus mutants; settings: for Growth: CFU/ml: subcultured on TSA, 24 hours
Experimental: A culture of Streptococcus mutants (causative bacteria for dental plaque) was grown in brain/heart infusion (BHI). Tubes containing 5 ml of BHI were inoculated with 0.1 ml of 10^5 CFU bacteria/ml and incubated anaerobically at 37° C. After 24 hours the turbidity was measured; the tubes were subcultured on TSA and incubated for 24 hours and colony counts were measured.

[5] = cited from earlier work

O=C(c1ccccc1)c1ccc2n1CCC2C(=O)O (stereo not shown) [ketorolac]
gastric mucosal side effect [1]: gastric mucosal ulceration | oral mucosal side effect [2]: ulceration in the oral mucosa was observed | effect on GCF-IL-1 beta in the oral cavity [3]: reduce GCF-IL-1 beta

Zinc salicylate
anti-Streptococcus activity (conclusion) [4]: exhibit anti-Streptococcus activity | Growth: CFU/ml ([4]; 25 ug/ml): >10^8 CFU/ml | Growth: CFU/ml ([4]; 50 ug/ml): >10^6 CFU/ml | Growth: CFU/ml ([4]; 100 ug/ml): 10 CFU/ml | Growth: CFU/ml ([4]; 200 ug/ml): 0 CFU/ml

zinc glycerate
water solubility (in words) [5]: moderately water soluble

zinc picolinate
water solubility (in words) [5]: moderately water soluble
